Read-outs that look alike come from different tables or passages of the source.
Experiments:
[1] = Stain removal from HAP disk, coffee stain; conditions: disk A-6: coffee stained disk treated the same way as P and Q (pH 8 SDS/HEPA buffer)
Source text: (§1) Oxidation resistant chelating buffer: 0.25M 1-Hydroxyethylidenediphosphonic acid (etridonic acid) (Dequest® 2010, Thermphos) (HEPA) was pH adjusted by microtitration with 10N NaOH. 1.28 g of 1-Hydroxyethylidenediphosphonic acid was to a 25-mL volumetric flask and brought to volume with HPDI water. The solution was transferred to a 50-mL beaker with a stir bar and pH adjusted using 10.04N NaOH, monitored with a calibrated pH meter. Aliquat 336® (Cognis) (also suitable is Aliquat 134®) (N-methyl-tri-(n-octyl)ammonium chloride), (N-methyl TOA) or “HEPA” chelating pH Buffer: 2.5-μL of N-methyl TOA was added to 5 mL of pH 7 HEPA buffer and sonicated for 1 minute. pH 7 Sodium Dodecyl Sulfate (SDS)/HEPA Buffer: 10 mg of SDS was added to 5 mL of pH 7 HEPA buffer and sonicated for 1 minute. pH 8 SDS/HEPA Buffer: 10 mg of SDS was added to 5 mL of pH 8 HEPA buffer and sonicated for 1 minute.
(§2) • A. A tea stained disk was placed into the bowl of the bowl of a watch glass and 100 μL of pH 7 HEPA buffer was pipetted onto the disk surface. 3.7 mg of potassium ferrate(VI) was added to the disk surface and mixed gently. […] The disk was rinsed at 10 minutes with HPDI water. […] 1 mL of pH 7 HEPA buffer was added followed by 9 mL of HPDI water. 9.7 mg of potassium ferrate(VI) was added. The tube was gently hand shaken for 10 minutes. The disk was removed and rinsed with HPDI water. […] 10 mg of potassium ferrate(VI) was added to 1 mL of pH 7 HEPA buffer in a 50 mL centrifuge tube. 9 mL HPDI water was added, and the solution was shaken for a few seconds followed by the addition of a tea stained HAP disk. The disk was removed at 10 minutes and rinsed with HPDI water. […] 1.3 mg of potassium ferrate(VI) added and mixed into the solution. […] 1.4 mg of potassium ferrate(VI) was added to the disk surface and mixed gently. […] The reaction was allowed to continue for 5 minutes. […] The disk was rinsed several times with HPDI water. 100 μL of pH 7 HEPA buffer was pipetted onto the disk surface and allowed to react for 5 minutes. […] 1 mg of potassium ferrate(VI) was added and mixed into the liquid.

[2] = Thermal stability of K2FeO4, cycling temperature profile (AR 70-38); format: physicochemical; conditions: cycling daily from 23° C. to 71° C. and back again
Method: The cycling temperature profile specified in AR 70-38 also was studied. An oven (Fisher Scientific model No. 48) was outfitted with a programmable temperature controller (Omega Engineering model CN3251) and a small fan in order to provide air circulation. Temperature data acquisition was performed using a HOBO data logger (Onset Computer Corp., model HTEA −39+123° C.). The temperature controller was programmed to meet the specifications of AR 70-38 Sec. II, Table 2-2 (Storage and Transit Conditions). Specifically, the oven was programmed to remain above 66° C. for at least 5 hrs and to reach a peak temperature of 71° C. for not more than 1 hr. The programmed parameters appear below in Table 1.

[3] = at 71° C.; pure (80-100%) or moderate purity (50-80%)
Method: The more demanding isothermal test conditions were chosen for the preliminary viability assessment testing. In this series of tests, a Blue M Electric Oven, Model OV-490A-3 (S/N OV-11311, BMI No. N-00154, 120V Single Phase, 38-260° C.), was used. The oven was set to maintain an air temperature of approximately 71.5° C. A mercury thermometer immersed in silicone oil was added to the oven for manual tracking of the temperature, and a HOBO model H08-002-02 external temperature logger (Onset Computer Corp., S/N 5948-9820) was used for automated temperature data acquisition. Four ˜1.0 g samples of K2FeO4 TG were transferred to clean 12 mL glass vials with Teflon-lined caps; these samples with purity from ˜75-93% were chosen specifically to represent a variety of initial purity values. Before closure, the headspace of each vial briefly was purged (˜20 sec at ˜250 cm^3 (STP)) with ultra-high purity (UHP) argon gas to minimize trapped moisture.
The samples were removed from the oven at 1, 2, 5, 7, 12, 27, 48, and 98 days. The purity of each sample was determined by the technique described in Section 3.2.1. Each vial was assayed three times at each sampling point in order to calculate standard deviation and provide an estimate of precision. When returning the vials to the isothermal oven, the headspace of each vial was purged briefly with UHP argon, as before.

[4] = Treatment of unstained HAP disk (staining by the reagent itself); conditions: disk D: unstained disk, 100 μL pH 7 HEPA buffer, 1.3 mg
Method: Tea staining Procedure: A calcium-deficient hydroxyapatite (HAP) disk (Clarkson Chromatography Products) was placed into a 50-mL centrifuge tube with 10 mL of tea solution. The centrifuge tube was gently shaken by hand for 15 minutes. The tea solution was decanted and replaced with 10 mL of HPDI water and vortexed for 30 seconds. The water was decanted and replaced with 10 additional mL of HPDI water and vortexed for 30 seconds. The disk was removed with forceps and patted dry with a tissue. The disk was allowed to air dry at room temperature for at least one hour.
as §1
• A. A tea stained disk was placed into the bowl of the bowl of a watch glass and 100 μL of pH 7 HEPA buffer was pipetted onto the disk surface. 3.7 mg of potassium ferrate(VI) was added to the disk surface and mixed gently. […] The disk was rinsed at 10 minutes with HPDI water. […] 1 mL of pH 7 HEPA buffer was added followed by 9 mL of HPDI water. 9.7 mg of potassium ferrate(VI) was added. The tube was gently hand shaken for 10 minutes. The disk was removed and rinsed with HPDI water. […] 10 mg of potassium ferrate(VI) was added to 1 mL of pH 7 HEPA buffer in a 50 mL centrifuge tube. 9 mL HPDI water was added, and the solution was shaken for a few seconds followed by the addition of a tea stained HAP disk. The disk was removed at 10 minutes and rinsed with HPDI water. […] 1.3 mg of potassium ferrate(VI) added and mixed into the solution. […] 1.4 mg of potassium ferrate(VI) was added to the disk surface and mixed gently. […] The reaction was allowed to continue for 5 minutes. […] The disk was rinsed several times with HPDI water. 100 μL of pH 7 HEPA buffer was pipetted onto the disk surface and allowed to react for 5 minutes.

[5] = Stain removal from HAP disk, Cran-Grape juice stain; conditions: disk A-5: Cran-Grape juice stain treated the same way as P and Q (pH 8 SDS/HEPA buffer)
Source text: as §1, §2

With potassium ferrate(VI) the “L* (lightness/darkness)” value [1] was 101.9, the “a* (blue/red)” value [1] was −2.1 and the “appearance of disk after treatment” value [1] was “All stains were removed”. For the same substance, the “b* (yellow/green)” value [1] was −2.8, the “reflectance of visible light at 450 nm” value [1] was 106.774 and the “reflectance of visible light at 750 nm” value [1] was 99.233. The “ΔE (coffee stain)” value [1] was 13.57, the stable to storage [2] was “at least 82 days” and the stable to storage [3] was “at least 98 days”. For the same substance, the “L* (lightness/darkness)” value [4] was 103.4, the “a* (blue/red)” value [4] was −2.2 and the “appearance of disk after treatment” value [4] was “very slight yellow tint”. For the same substance, the “b* (yellow/green)” value [4] was 0.5, the “reflectance of visible light at 450 nm” value [4] was 105.246 and the “reflectance of visible light at 750 nm” value [4] was 102.793. For the same substance, the “ΔE (versus tea stain)” value [4] was 20.34, the “L* (lightness/darkness)” value [5] was 107.3 and the “a* (blue/red)” value [5] was −3.2. The “appearance of disk after treatment” value [5] was “All stains were removed”, the “b* (yellow/green)” value [5] was −5.5 and the “reflectance of visible light at 450 nm” value [5] was 126.369. The “reflectance of visible light at 750 nm” value [5] was 108.805 and the “ΔE (cran-grape juice stain)” value [5] was 6.82.

From patent US8663607B2, “Ferrate(VI)-containing compositions and methods of using ferrate(VI)” (Battelle Memorial Institute, priority 2007, dated 2014)
